Key:
Type in all cases: physicochemical
[1] = Mass loss of PCDS diffuser with isopropyl myristate as solvent; settings: 2% F3 in isopropyl myristate, 170 grams, over 14 days
Experimental: The first step in solvent validation consists in preparing a device comprising a glass bottle containing a 2% solution of a known pheromone (feline facial pheromone F3) in isopropyl myristate (also termed Myristic acid isopropyl ester, IUPAC name Propan-2-yl tetradecanoate). The initial weight of solution placed in the bottle is 170 grams. Monitoring is carried out over 14 days, with weighing at DO, D7 and D14.

[2] = F3P PCDS indirect diffusion, pheromone remaining in solution (GC/FID)
Experimental: For this study, three diffusers each containing 40 mL of product and 6 capillaries were prepared and diffused. Once a week, on Wednesdays, the amount of pheromone remaining in the solution was monitored by gas chromatography analysis coupled to a flame ionization detector (GC/FID) until no liquid remained. The percentage of pheromone was measured weekly.
Next, the percentage of pheromone was checked by external calibration using a GC/FID calibration range.
Analyses were carried out by gas chromatography coupled to a flame ionization detector. The instrument was a Shimadzu GC 2025® with an AOC20i® autosampler. Separation was performed on an Agilent DB-FFAP® column (30 m×0.25 mm×0.25 μm, stationary phase: nitroterephthalic acid-modified polyethylene glycol). The temperature of the gas chromatography oven was initially maintained at 140° C. for 2 minutes, then increased at 10° C./min to 250° C. and left at this temperature for 3 minutes. The carrier gas was helium at 1 mL/min. Analyses were performed in split mode using a split/splitless injector (temperature: 250° C., split: 1:50).
The detector used was a flame ionization detector. The detector temperature was 250° C. with an air flow rate of 400 mL/min, hydrogen 40 mL/min and nitrogen 30 mL/min.
For this purpose, a calibration range was prepared for each analysis. […]

[3] = DAP PCDS direct diffusion (SPME-GC/MS); settings: DAP/PCDS diffuser, 40 mL, 6 capillaries
Experimental: Three diffusers, each containing 40 mL of solution and 6 capillaries, were prepared and diffused. The first points were measured at T=1d, T=2, and T=3d, then every Monday, Wednesday and Friday of each study week until the diffusers no longer contained any solution. To measure the pheromone released into the air at each study time, the diffuser is first weighed (with the sticks) to measure mass loss, then placed in an enclosed area (in this case, an upside-down aquarium) containing a SPME fiber, as shown in FIG. 24.
The fiber is left to diffuse above the diffuser for 2 hours (a time determined in a previous method development as the optimum time for molecules to adsorb to the phase), then analyzed using the gas chromatography/mass spectrometry (GC/MS) technique.
Three diffusers were studied for greater accuracy. The chromatograms obtained are reprocessed using GC/MS Solution software.
For each chromatographic peak, the area is recorded using GC/MS Solution software, then entered into an Excel spreadsheet. Diffusion curves giving the area of the chromatographic peak corresponding to each active ingredient as a function of time are then plotted.
Analyses were carried out by gas chromatography/mass spectrometry (GC/MS). The instrument was a Shimadzu GCMS QP2010SE® equipped with an AOC 6000® autosampler. Separation was carried out on a ZB-FFAP® column (30 m×0.25 mm×0.25 μm, stationary phase: nitroterephthalic acid-modified polyethylene glycol) supplied by Phenomenex. The furnace temperature was initially set at 80° C. for 1 minute, then increased at 10° C./min to 240° C. and maintained at this temperature for 2 minutes. The carrier gas was helium at a flow rate of 1 mL/min. Analysis time is 19 minutes.
The injector is a split/splitless injector used in split mode (temperature: 250° C., split: 50:1). The SPME fiber was injected directly into the injector and left to desorb for 15 minutes.
The separated molecules were detected using a mass spectrometer equipped with an electron impact source (temperature: 200° C.). The analyzer is a simple quadrupole. The interface temperature is 250° C. Data were acquired in FASST mode (Fast automated SCAN/SIM type), i.e. part of the analysis was performed by scanning all ions (SCAN) and part by selecting specific ions (SIM). Target molecules were thus analyzed using ion selection.

[4] = DAP quantification at the top of the capillaries (GC/FID); settings: top of the rods
Experimental: For this study, three diffusers containing 40 mL of solution and 6 capillaries were used for diffusion. Each week, a diffuser was weighed and the pheromone contained in the liquid solution and on the top of the capillaries was quantified by gas chromatography with flame ionization detector (GC/FID). To quantify the pheromone at the top of the capillaries, approximately 1 cm of the top of the capillaries is cut off with scissors and 0.1 g of the capillary tops is placed in a 25 mL volumetric flask. Acetone is then added up to the beginning of the neck, and the flask is placed in an ultrasonic bath for one hour. Acetone is then topped up to volume, and an aliquot of solution is taken and filtered through a syringe filter for GC/FID analysis. DAP is then quantified by external calibration. For this, five solutions with concentrations ranging from 50% to 150% of the target value (100% being the target value) are prepared to cover a wide concentration range (protocol for preparing the standard range not shown but available). Analyses were carried out using gas chromatography with a flame ionization detector. The instrument was a Shimadzu GC 2025AF® equipped with an AOC20i® autosampler. Separation was carried out on a DB-WAX UI® column (20 m×0.18 mm×0.30 μm, polyethylene glycol (PEG) stationary phase) supplied by Agilent. The oven temperature was initially set at 90° C. and held for 2 minutes, then increased at 20° C./min to 160° C. and held at this temperature for 5 minutes. Finally, the temperature was increased at 20° C./min to 220° C. and held at this temperature for 5 minutes. The carrier gas is helium at a flow rate of 1 mL/min. Analysis time was thus 18.5 minutes. The injector is a split/splitless injector used in split mode (temperature: 230° C., split: 50:1, injected quantity: 1 μL). The detector is a flame ionization detector (FID). Its temperature is 240° C., the hydrogen flow rate is 40 mL/min and the air flow rate is 400 mL/min. A cleaning gas, dinitrogen, is also present at a flow rate of 30 mL/min.

[5] = Ratios of molecules diffused through the sticks over time
Experimental: Furthermore, as small molecules diffuse more, it happens that they lose intensity over the course of the study, so the ratios are different 24 hours after immersing the sticks in the liquid and 21 days later. Here are the ratios for each pheromone studied at the start of the study and at the end.

[6] = Indirect assay of diffuser blocks (GC/FID, pheromone remaining in the block); settings: despecified pheromone
Experimental: Analyses were carried out using the gas chromatography (GC) technique with a flame ionization detector (FID), commonly known as GC/FID. The instrument used was the Shimadzu GC2025.® • Injection: Quantity injected: 1 μL, split 50:1, temperature: 230° C. • Separation: DB-WAX column (Agilent), length: 20 m, diameter: 180 μm, film thickness: […] • Carrier gas: Helium (He) • Analysis time: 11.50 min (not including time to return to equilibrium between each analysis) injection). • Detection: FID, temperature: 250° C., flow rates: H2: 40 mL/min, Air: 400 mL/min, Nitrogen (make-up): 30 mL/min. To obtain a representative sample, “cores” were drilled at various positions in the block and then collected. 2.5 g of gel were weighed into a 50 mL volumetric flask and the volume made up to the beginning of the neck of the flask with acetone. The flask was then placed in an ultrasonic bath for one hour until the block was dissolved (a white precipitate was obtained), then acetone was added to the mark. An aliquot of this solution was placed in a syringe fitted with a syringe filter and filtered to obtain a translucent solution. The resulting solution was transferred to a 1.5 mL GC vial for analysis. The assays were carried out using a calibration range.

[7] = Direct diffusion of diffuser blocks (SPME GC/MS); settings: despecified pheromone 2%, 4 weeks
Experimental: Analyses were carried out using gas chromatography (GC) coupled to a mass spectrometer (MS) detector, a technique commonly referred to as GCMS. The molecules of interest were extracted using the Solid Phase Micro-Extraction (SPME) technique. The instrument used was the following: QP2010SE® from Shimadzu (See FIG. 4).
AOC 6000® automatic feeder • Extraction/SPME fiber: polyacrylate/Fused silica (85 μm), 23 Ga. • Adsorption time: 2 hours (exposure time of fiber above block) (See FIG. 4) • Desorption time: 30 minutes (fiber exposure time in injector) • Fiber-block distance: 2 cm • Injection: split/splitless injector • Temperature: 250° C., split 50 mode. • Separation: ZB-FFAP® column (Phénomenex), length: 30 m, diameter: 250 μm, film thickness: […]
• Carrier gas: Helium (He) • Analysis time: 18 min (not including time to return to equilibrium between each analysis injection • Detection: mass spectrometer with electron impact source/analyzer: quadrupole. • Source temperature: 200° C. • Interface temperature: 250° C. • Scan m/z 50 to m/z 500 • SIM with ions 55, 66 and 74.
Analyses were carried out in triplicate to verify reproducibility of results.
With the SPME method, results are evaluated by measuring the chromatographic peak area. The data have been plotted on diffusion curve (see FIGS. 5 and 6).

[8] = Indirect assay of rod diffuser solution (GC/FID); settings: stick diffuser solution, despecified pheromone
Experimental: Solution integrity was checked at each analysis time. Before each indirect assay, the vial was weighed to visualize mass loss over time. Each vial contained six sticks. • Specifications: the solution must lose mass over time. • Result: Compliant—See FIG. 9 This is the same analytical method as for the diffuser block study, only the sample preparation differs. 1.25 g of solution were weighed into a 25 mL volumetric flask and the volume made up to the mark with acetone. The resulting solution is transferred to a 1.5 mL GC vial for analysis. This is exactly the same calibration range as for the diffuser block study.

[9] = Pheromone migrated to the stick tips (GC/FID); settings: on stick tips, despecified pheromone
Experimental: In the course of this study, we also measured the amount of pheromone migrating on the sticks, to check that the pheromone had migrated to the top of the sticks, helping it to diffuse into the air. To do this, the test is the same as for the diffuser blocks: 2.5 g of stick tips are cut off and placed in a 50 mL flask, which is then placed in an ultrasonic bath for one hour. The resulting solution is filtered (to avoid injecting particles into the instrument) and placed in a chromatographic vial for analysis.

[10] = Direct diffusion of rod diffuser (SPME GC/MS); settings: despecified pheromone 2%
Experimental: This is exactly the same analytical method used for the diffuser block study. The study setup is shown below, also with a two-hour adsorption time-See FIG. 12 showing the set-up. Because of the height of the passive diffusion device, the fiber mounting bracket will not be the same for the block and for the rod device. The distance between the fiber and the device is 10 cm. With the SPME method, results are evaluated by measuring the chromatographic peak area. The data have been plotted to produce a diffusion curve.

[11] = DAP, 24 h after immersion of sticks
[12] = DAP, 21 days after immersion of sticks (empty tank)
[13] = F3P, 24 h after immersion of the sticks
[14] = F3P, 21 days after immersion of sticks (empty tank)

CCCCCCCCCCCCCC(=O)OC(C)C [isopropyl myristate, Propan-2-yl tetradecanoate]
mass loss of the PCDS diffuser [1]: virtually non-existent

CCCCCCCCCCCC(=O)OC [methyl laurate, methyl dodecanoate]
quantities found in the solution [2]: very low | direct diffusion over time [3]: decreases slightly over time | Proportion of methyl laurate in the DAP pheromone ([4]; T = 6 j (instead of 2%)): laurate: 1.2% | Proportion of methyl laurate in the DAP pheromone ([4]; T = 22 j (instead of 2%)): laurate: 0.4% | Proportion of methyl laurate in the DAP pheromone ([4]; T = 13 d (instead of 2%)): laurate: 0.5% | ratio of molecules diffused through the sticks [5, 11]: 51 % (w/w) | ratio of molecules diffused through the sticks [5, 12]: 37 % (w/w) | ratio of molecules diffused through the sticks [5, 13]: 20 % (w/w) | ratio of molecules diffused through the sticks [5, 14]: 17.5 % (w/w)

CCCCCCCCCCCCCC(=O)OC [methyl myristate, methyl tetradecanoate]
% of the active ingredient in the pheromone ([6]; day 0): 12% | % of the active ingredient in the pheromone ([6]; day 7): 11.9% | % of the active ingredient in the pheromone ([6]; day 14): 11.9% | % of the active ingredient in the pheromone ([6]; day 21): 11.7% | % of the active ingredient in the pheromone ([6]; day 28): 11.7% | direct diffusion from the diffuser block [7]: diffuse better | % of the active ingredient in the pheromone ([8]; day 0): 11.9% | % of the active ingredient in the pheromone ([8]; day 7): 11.9% | % of the active ingredient in the pheromone ([8]; day 14): 11.9% | % of the active ingredient in the pheromone ([8]; day 21): 11.4% | % of the active ingredient in the pheromone ([9]; day 7): 9.2% | % of the active ingredient in the pheromone ([9]; day 14): 8.2% | % of the active ingredient in the pheromone ([9]; day 21): 6.4% | direct diffusion, rod system compared with diffuser block [10]: better in the blocks than in the rod system | direct diffusion over time [3]: stable over time | ratio of molecules diffused through the sticks [5, 11]: 27 % (w/w) | ratio of molecules diffused through the sticks [5, 12]: 33.5 % (w/w) | ratio of molecules diffused through the sticks ([5]; Despecified pheromone (Core), 5 days after immersion of the sticks): 76 % (w/w) | ratio of molecules diffused through the sticks ([5]; Despecified pheromone (Core), 21 days after immersion of sticks (empty tank)): 70 % (w/w) | ratio of molecules diffused through the sticks [5, 13]: 4 % (w/w) | ratio of molecules diffused through the sticks [5, 14]: 8.7 % (w/w)

Reference: US20250248393A1, “METHOD OF RELEASING A SEMIOCHEMICAL IN THE ENVIRONEMENT BY PASSIVE DIFFUSION, SYSTEM AND MEANS, ESPECIALLY STICKS, TO THIS END, AND USES THEREOF” (SIGNS, priority 2024, published 2025)
